From patent US9422262B2, “Compounds and methods for treating diseases mediated by protease activated receptors” (The Broad Institute, Inc., priority 2010, dated 2016)

Target: T1, PAR1 (Homo sapiens, UniProt P25116)
T1 sequence (P25116 22-425): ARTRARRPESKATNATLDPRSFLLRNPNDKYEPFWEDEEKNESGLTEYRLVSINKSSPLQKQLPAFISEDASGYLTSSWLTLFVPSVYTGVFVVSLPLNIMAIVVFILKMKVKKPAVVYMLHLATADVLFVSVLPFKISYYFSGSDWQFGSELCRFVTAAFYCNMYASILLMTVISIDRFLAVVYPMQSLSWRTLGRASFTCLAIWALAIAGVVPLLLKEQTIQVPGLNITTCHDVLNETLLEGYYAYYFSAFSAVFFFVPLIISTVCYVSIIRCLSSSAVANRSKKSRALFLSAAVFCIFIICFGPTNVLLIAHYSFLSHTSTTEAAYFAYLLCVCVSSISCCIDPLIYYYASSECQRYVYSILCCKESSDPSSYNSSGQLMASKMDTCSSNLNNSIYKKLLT
Assay: PAR1-mediated platelet aggregation and shape change
Assay type: cell-based
Set-up: endogenous in cells; host or cells: platelets (platelet-rich plasma; washed platelets from individual donors)
Details: FIG. 3A
From the text: (§1) This pattern of inhibition is consistent with that of an allosteric inhibitor. […] This observation raised the possibility that compound 1 blocks PAR1 signaling through Gαq (which mediates platelet aggregation downstream of PAR1), but not Gα12/13 (which mediates shape change downstream of PAR1). A previously identified PAR1 inhibitor, 3,5-difluoro aminoisoxazole (3,5-DFAI), inhibited both shape change and aggregation. Shape change that occurred in the presence of compound 1 was blocked by the Rho kinase inhibitor Y27632, confirming participation of Rho kinase downstream of Gα12/13 in compound-1-resistance shape change (FIG. 3A). […] PAR1-mediated decrease in TER in these cells is dependent on Gα12. […] In contrast, 3,5-DFAI inhibited SFLLRN-mediated decrease in TER (FIG. 3B) and compound 1 inhibited Gαq-mediated Ca^2+ flux in these MDCK cells (FIG. 3C).

| PAR1-mediated platelet aggregation | PAR1-mediated platelet shape change | Compound |
| --- | --- | --- |
| inhibited | inhibited | Nc1c(F)noc1F [3,5-DFAI, 3,5-difluoro aminoisoxazole] |

Same assay, conditions: in the presence of compound 1; FIG. 3A

| shape change that occurred in the presence of compound 1 | Compound |
| --- | --- |
| blocked | C[C@@H](N)[C@H]1CC[C@H](C(=O)Nc2ccncc2)CC1 [Compound Y27632] |

Test system: Gα12 signaling downstream of PAR1
Assay: PAR1-mediated transmembrane resistance (TER) in MDCK cells overexpressing Gα12
Assay type: cell-based
Details: FIG. 3B
From the text: as §1

| Compound | PAR1-mediated (SFLLRN) change in TER |
| --- | --- |
| Nc1c(F)noc1F [3,5-DFAI, 3,5-difluoro aminoisoxazole] | inhibited |

Test system: thrombus formation
Assay: Thrombus formation following laser-induced injury of the cremaster arteriole in mice
Assay type: in vivo
Details: single infusion of 5 mg/kg, FIG. 5A
From the text: PAR1 is the thrombin receptor on human platelets and serves an important function in mediating thrombus formation. We tested compound 1 to determine whether it inhibited thrombus formation following laser-induced injury of the cremaster arteriole in mice. The dominant PAR receptor on mouse platelets is PAR4. However, since compound 1 acts at a non-orthosteric site and mouse PAR4 differs from human PAR4, we reasoned that compound 1 may be able to block mouse PAR4. […] When infused into mice at a concentration of 5 mg/kg, compound 1 inhibited platelet accumulation during thrombus formation by >90% (FIG. 4B). Infusion of 5 mg/kg also impaired fibrin generation during thrombus formation (FIG. 4C). Thus, compound 1 blocks both cellular- and coagulation protein-mediated arms of thrombus formation. […] The compound was therefore infused every 30 minutes during the course of these experiments. The short half-life of compound 1 in vivo may be useful in scenarios in which anticoagulation is only required for a short period of time or when anticoagulation needs to be reversed quickly, such as anticoagulation prior to invasive procedures or surgery.
(§2) Since there are also situations in which longer term anticoagulation is desired, we performed further studies in the thrombus formation model to assess analogs of compound 1 that may have a more long-lived effect. […] This instability in mouse plasma may have contributed to its short half-life of efficacy in vivo.

| Compound | impairment of platelet accumulation during thrombus formation [%] |
| --- | --- |
| CC(C)CC(=O)Nc1cccc(NC(=O)c2ccccc2Br)c1 [2-bromo-N-(3-(3-methylbutanamido)phenyl)benzamide] | > 90 |

Same assay, conditions: single infusion of 5 mg/kg, FIG. 5B

| Compound | impairment of fibrin generation during thrombus formation [%] |
| --- | --- |
| CC(C)CC(=O)Nc1cccc(NC(=O)c2ccccc2Br)c1 [2-bromo-N-(3-(3-methylbutanamido)phenyl)benzamide] | > 90 |

Test system: not listed separately
Assay: Stability in mouse plasma
Assay type: in vitro ADME
Details: not given
From the text: as §2

| remaining after 5 hour incubation in mouse plasma [%] | Compound |
| --- | --- |
| 64.6 | CC(C)CC(=O)Nc1cccc(NC(=O)c2ccccc2Br)c1 [2-bromo-N-(3-(3-methylbutanamido)phenyl)benzamide] |

Target: T2, Par1 (thrombin) receptor (Homo sapiens, UniProt P25116)
T2 construct: endogenous in cells; host or cells: platelets (platelet-rich plasma; washed platelets from individual donors)
T2 sequence (P25116 22-425): T1 sequence (P25116 22-425)
Assay: SFLLRN-mediated granule secretion, platelet-rich plasma, luciferin-luciferase ATP readout (primary assay)
Assay type: cell-based
Details: Table D; read-out: Activity (measured IC50 category)
Protocol: The compounds were tested in two independent IC50 determination experiments using the primary assay measuring SFLLRN-mediated granule secretion. For this assay, platelet-rich plasma is treated with putative inhibitors prior to activation by the SFLLRN peptide, which targets the Par1 (thrombin) receptor. Upon activation, platelets secrete dense granules, which are concentrated with ATP. Platelet activation and possible inhibition are monitored by a luciferin-luciferase assay (CellTiter-Glo without lysis reagent) to measure the ATP secreted from activated platelets. Luminescence measurements are made using a plate reader (Envision, PerkinElmer) capable of detecting luminescence.

| Compound | IC50 [µM] |
| --- | --- |
| O=C(Nc1cc(NC(=O)C2CCCC2)ccn1)c1ccccc1Br | > 10 |
| CCCC(=O)Nc1cccc(NC(=O)c2cnc3ccccc3c2)c1 | > 10 |
| O=C(Nc1cccc(NC(=O)c2ccccc2Br)c1)c1ccccc1 | > 10 |
| CCCC(=O)Nc1cccc(NC(=O)c2cccc(S(C)(=O)=O)c2)c1 | > 10 |
| CCCC(=O)Nc1cccc(NC(=O)c2ccccc2-c2ccccc2)c1 | > 10 |
| CCCC(=O)Nc1cccc(NC(=O)c2ccc(C(F)(F)F)cc2)c1 | > 10 |
| CCCC(=O)Nc1ccnc(NC(=O)c2ccccc2Br)c1 | > 10 |
| CCCC(=O)Nc1ccc(Cl)c(NC(=O)c2ccccc2Br)c1 | > 10 |
| CCCC(=O)Nc1cccc(NC(=O)c2ccc(OC)cc2)c1 | > 10 |
| CCCC(=O)Nc1ccc(NC(=O)c2ccccc2Br)cc1 | > 10 |
| CCC(C)(C)C(=O)Nc1cccc(NC(=O)c2ccccc2Br)c1 | > 10 |
| CCC(=O)Nc1cc(NC(=O)c2ccccc2C)ccc1C | > 10 |
| CCCC(=O)Nc1cccc(NC(=O)c2cccnc2)c1 | > 10 |
| CCCC(=O)Nc1ccc(Cl)c(NC(=O)c2ccccc2C)c1 | > 10 |
| CCCC(=O)Nc1cccc(NC(=O)c2ccccc2C(=O)N(C)C)c1 | > 10 |
| CC(=O)Nc1cccc(NC(=O)c2ccccc2Cl)c1 | > 10 |
| CCCC(=O)Nc1cccc(NC(=O)c2ccccc2S(C)(=O)=O)c1 | > 10 |
| CCCC(=O)Nc1cccc(N(C)C(=O)c2ccccc2Br)c1 | > 10 |
| CCCC(=O)Nc1cccc(NC(=O)c2ccc(C)cc2)c1 | > 10 |
| CCCC(=O)Nc1cccc(NC(=O)c2ccc(S(C)(=O)=O)cc2)c1 | > 10 |
| O=C(Nc1ccnc(NC(=O)c2ccccc2Br)c1)c1ccccc1 | > 10 |
| CC(=O)Nc1ccc(NC(=O)c2ccccc2Br)cc1 | > 10 |
| CCCC(=O)N(C)c1cccc(NC(=O)c2ccccc2Br)c1 | > 10 |
| CCCC(=O)Nc1cccc(NCc2ccccc2Br)c1 | > 10 |
| CCCC(=O)Nc1cccc(NC(=O)c2cccc(Cl)c2Cl)c1 | 1 to 5 |
| CN(C(=O)c1ccccc1Br)c1cccc(NC(=O)C2CCCC2)c1 | > 10 |
| CCCC(=O)Nc1cccc(NC(=O)c2c(Cl)cccc2Br)c1 | 1 to 5 |
| CCCC(=O)Nc1cccc(NC(=O)c2ccccc2C(F)(F)F)c1 | 1 to 5 |
| CCCC(=O)Nc1cccc(NC(=O)c2ccco2)c1 | > 10 |

Second part, the molecule after the results:

| IC50 [µM] | Compound |
| --- | --- |
| 0.001 to 1 | CCCC(=O)Nc1cccc(NC(=O)c2cc(F)ccc2Br)c1 |
| 1 to 5 | CCCC(=O)Nc1cccc(NC(=O)c2c(C)cccc2C)c1 |
| 1 to 5 | Cc1ccccc1C(=O)Nc1cccc(NC(=O)CC(C)C)c1 |
| 1 to 5 | CCCC(=O)Nc1cccc(NC(=O)c2ccccc2Cl)c1 |
| 0.001 to 1 | CCCC(=O)Nc1cccc(NC(=O)c2ccccc2F)c1 |
| 0.001 to 1 | O=C(Nc1cccc(NC(=O)C2CCCC2)c1)c1ccccc1Br |
| 0.001 to 1 | CCCC(=O)Nc1cccc(NC(=O)c2cc(C)ccc2Br)c1 |
| 0.001 to 1 | CCCC(=O)Nc1cccc(NC(=O)c2ccc(F)cc2Br)c1 |
| 0.001 to 1 | CCCCNc1cccc(NC(=O)c2ccccc2Br)c1 |
| 0.001 to 1 | CCCC(=O)Nc1cccc(NC(=O)c2ccccc2OC(F)(F)F)c1 |
| 1 to 5 | CCCNC(=O)c1cccc(NC(=O)c2ccccc2Cl)c1 |
| 1 to 5 | CCOC(=O)Nc1cccc(NC(=O)c2ccccc2Br)c1 |
| 0.001 to 1 | CCCC(=O)Nc1cccc(NC(=O)c2ccccc2Br)c1 [drawing 135] |
| 0.001 to 1 | CC(C)CC(=O)Nc1cccc(NC(=O)c2ccccc2Br)c1 [drawing 174] |
| 1 to 5 | CCC(=O)Nc1cccc(NC(=O)c2ccccc2Br)c1 |
| 0.001 to 1 | CCCC(=O)Nc1cccc(NC(=O)c2ccccc2C)c1 |
| 1 to 5 | O=C(Nc1ccccc1)c1ccccc1Br |
| 0.001 to 1 | CCCC(=O)Nc1cccc(NC(=O)c2cc(Cl)ccc2Br)c1 |
| 0.001 to 1 | CCCC(=O)Nc1cccc(NC(=O)c2ccccc2CC)c1 |
